One assay has as its system AGS cell. The experiment in a line: Anti-proliferative 2D CTG assay, AGS cells. Type of assay: cell-based. The conditions noted are these: Homo sapiens, 72 h. The procedure:
When the cell confluence was about 80%, the cells were isolated with 0.25% trypsin. Isolated cells were resuspended in 5 mL fresh cell culture medium and centrifuged for cell collection. Meanwhile, the number of cells was also calculated. The cells were then suspended in culture medium of medium concentration. The cells were placed into a 96-well plate with 1000 cells/well for AGS and 1000 cells/well for GP2D. The 96-well plate was placed in an incubator at 37° C. and incubated overnight.
1.2 Day 1 Compound Treatment From the 10 mM stock solution, with a ratio of 1:5, 10-point serial dilutions were performed. The 10× medium containing the compound was transferred into corresponding wells of the 96 wells. The final maximum compound concentration was […] and the final DMSO concentration was 0.1%. The 96-well plate was placed in a 37° C. incubator, the AGS cells were incubated for 3 days, and the GP2D cells were incubated for 4 days.
50 μL/well of detection reagent (CTG) was added to the AGS cells, and the signal was read in an Envision machine.
The percent inhibition (%) at each compound concentration was calculated from the signal in the HPE and ZPE control wells and the fluorescence signal in the individual compound wells included in each assay plate. […] The compound concentration required for inhibitory concentration at 50% (IC50) was determined using a four-parameter logarithmic dose-response equation by testing the concentration of the compound and the inhibition percentage value. The endpoint value (IC50) of the reference compound was assessed in each experiment as a quality control measure. If the endpoint value is within three times the expected value, the experiment may be considered acceptable.

A further assay addresses KRAS^G12D/cRAF (Homo sapiens, UniProt P01116, G12D). Kind of assay: KRAS G12D/cRAF binding test (Alphalisa). The conditions noted are these: His-tagged KRAS G12D + GMPPNP, GST-tagged cRAF. On the procedure:
The compound was dissolved in 100% DMSO at a starting concentration of 5 mM and diluted in DMSO with a 3-fold serial dilution method for a total of 8 concentration points. 1 μL of the compound or DMSO at each concentration point was added into 99 μL of the experimental buffer to obtain 10× stock solution.
• 1) 4 μL of the working mixture solution of His-tagged KRAS^G12D and GMPPNP was added to the 384-well plate. • 2) The 10× compound stock solution or 1% DMSO was added to the 384-well plate. • 3) The plate was centrifuged at 1000 rpm for 1 minute. • 4) 4 μL of GST-tagged cRAF solution was added to the 384-well plate. • 5) The plate was centrifuged at 1000 rpm for 1 minute. • 6) The plate was incubated at room temperature for 15 minutes. • 7) 10 μL of detection working solution was added to the 384-well plate. • 8) The plate was centrifuged at 1000 rpm for 1 minute. • 9) The plate was incubated at room temperature for 60 minutes. • 10) The 384-well plate was placed into Envision and assay data was obtained.
The ratio for each compound concentration was calculated from the signal of the DMSO control group contained in each assay plate and the Alphalisa signal in each compound well. The compound concentration required for inhibitory concentration at 50% (IC50) was determined using a four-parameter logarithmic dose-response equation by testing the concentration of the compound and the value of the ratio. The endpoint value (IC50) of the reference compound was assessed in each experiment as a quality control measure. If the endpoint value is within three times the expected value, the experiment may be considered acceptable.

Setting [1] is: AGS cells, incubated 3 days, CTG, class symbols, read-out: AGS cell IC50.
[2] abbreviates: AGS cells, incubated 3 days, CTG, numeric values, read-out: AGS cell IC50.

Read-outs that look alike come from different tables or passages of the source.

Broadly, the IC50 is the midpoint of a concentration-inhibition curve.

Chain of KRAS^G12D/cRAF (P01116 1-188 isoform P01116-2 G12D): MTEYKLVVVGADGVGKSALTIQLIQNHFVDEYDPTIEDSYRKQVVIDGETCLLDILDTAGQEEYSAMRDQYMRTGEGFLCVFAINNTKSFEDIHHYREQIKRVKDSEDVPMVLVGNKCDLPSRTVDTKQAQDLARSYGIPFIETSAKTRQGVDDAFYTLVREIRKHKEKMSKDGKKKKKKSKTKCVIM

Take `C#Cc1c(F)ccc2cc(O)cc(-c3ncc4c(N5CC6CCC(CSC)(C5)N6)nc(OC[C@@]56CCCN5C[C@H](F)C6)nc4c3F)c12` (stereo partly drawn) [Example 10, 5-ethynyl-6-fluoro-4-(8-fluoro-2-(((2R,7aS)-2-fluorotetrahydro-1H-pyrrolizin-7a(5H)-yl)methoxy)-4-(1-((methylthio)methyl)-3,8-diazabicyclo [3.2.1]octan-3-yl)pyrido[4,3-d]pyrimidin-7-yl)naphthalen-2-ol]: the values for the IC50 in the assay on AGS cell (setting [1]) and on KRAS^G12D/cRAF (class symbols) were 50 to 500 nM and more than 500 nM, respectively.
As for `C#Cc1c(F)ccc2cc(O)cc(-c3ncc4c(N5C[C@@H]6CC[C@](COC)(C5)N6)nc(OC[C@@]56CCCN5C[C@H](F)C6)nc4c3F)c12` [Example 46, 5-ethynyl-6-fluoro-4-(8-fluoro-2-(((2R,7aS)-2-fluorotetrahydro-1H-pyrrolizin-7a(5H)-yl)methoxy)-4-((1R,5S)-1-(methoxymethyl)-3,8-diazabicyclo[3.2.1]octan-3-yl)pyrido[4,3-d]pyrimidin-7-yl)naphthalen-2-ol], the IC50 was less than 50 nM in the assay on AGS cell (setting [1]) and 50 to 500 nM at KRAS^G12D/cRAF (class symbols).
On the same counts, the results for `C#Cc1c(F)ccc2cc(O)cc(-c3ncc4c(N5CC6CCC(CN(C)C)(C5)N6)nc(OC[C@@]56CCCN5C[C@H](F)C6)nc4c3F)c12` (stereo partly drawn) [Example 24, 4-(4-(1-((dimethylamino)methyl)-3,8-diazabicyclo[3.2.1]octan-3-yl)-8-fluoro-2-(((2R,7aS)-2-fluorotetrahydro-1H-pyrrolizin-7a(5H)-yl)methoxy)pyrido[4,3-d]pyrimidin-7-yl)-5-ethynyl-6-fluoronaphthalen-2-ol] are less than 50 nM and 50 to 500 nM.
As for `C#Cc1c(F)ccc2cc(O)cc(-c3ncc4c(N5C[C@H]6CC[C@@](/C=C\F)(C5)N6)nc(OC[C@@]56CCCN5C[C@H](F)C6)nc4c3F)c12` [Example 59, 5-ethynyl-6-fluoro-4-(8-fluoro-2-(((2R,7aS)-2-fluorotetrahydro-1H-pyrrolizin-7a(5H)-yl)methoxy)-4-((1R,5R)-1-((Z)-2-fluorovinyl)-3,8-diazabicyclo[3.2.1]octan-3-yl)pyrido[4,3-d]pyrimidin-7-yl)naphthalen-2-ol], the results for the half-inhibitory concentration (IC50) in the assay with AGS cell (setting [2]) and on KRAS^G12D/cRAF (numeric values) were 13 nM and 15 nM, respectively.
For `[2H]C([2H])([2H])OC[C@]12CC[C@H](CN(c3nc(OC[C@@]45CCCN4C[C@H](F)C5)nc4c(F)c(-c5cc(O)cc6ccc(F)c(C#C)c56)nc(OCC)c34)C1)N2` [Example 37, 4-(5-ethoxy-8-fluoro-2-(((2R, 7aS)-2-fluorotetrahydro-1H-pyrrolizin-7a(5H)-yl)methoxy)-4-((1S,5R)-1-((methoxy-d3)methyl)-3,8-diazabicyclo [3.2.1]octan-3-yl)pyrido [4,3-d]pyrimidin-7-yl)-5-ethynyl-6-fluoronaphthalen-2-ol], the concentration for half-maximal inhibition (IC50) is less than 50 nM in the assay with AGS cell (setting [1]) and 50 to 500 nM at KRAS^G12D/cRAF (class symbols).
The matching figures for `C#Cc1c(F)ccc2cc(O)cc(-c3ncc4c(N5CC6CCC(CC)(C5)N6)nc(OC[C@@]56CCCN5C[C@H](F)C6)nc4c3F)c12` (stereo partly drawn) [Example 19, 4-(4-(1-ethyl-3,8-diazabicyclo[3.2.1]octan-3-yl)-8-fluoro-2-(((2R,7aS)-2-fluorotetrahydro-1H -pyrrolizin-7a(5H)-yl)methoxy)pyrido[4,3-d]pyrimidin-7-yl)-5-ethynyl-6-fluoronaphthalen-2-ol]: less than 50 nM and 50 to 500 nM.
The matching figures for `[2H]C([2H])([2H])OC[C@@]12CC[C@@]([2H])(CN(c3nc(OC[C@@]45CCCN4C[C@H](F)C5)nc4c(F)c(-c5cc(O)cc6ccc(F)c(C#C)c56)ncc34)C1)N2` [Example 48, 5-ethynyl-6-fluoro-4-(8-fluoro-2-(((2R,7aS)-2-fluorotetrahydro-1H-pyrrolizin-7a(5H)-yl)methoxy)-4-((1R,5S)-1-((methoxy-d3)methyl)-3,8-diazabicyclo[3.2.1]octan-3-yl-5-d)pyrido[4,3-d]pyrimidin-7-yl)naphthalen-2-ol]: less than 50 nM and more than 500 nM.
On the same counts, the results for `[2H]C([2H])([2H])OCC12CCC(CN(c3nc(OC[C@@]45CCCN4C[C@H](F)C5)nc4c(F)c(-c5cc(O)cc6ccc(F)c(C#C)c56)nc(OC)c34)C1)N2` (stereo partly drawn) [Example 36, 5-ethynyl-6-fluoro-4-(8-fluoro-2-(((2R,7aS)-2-fluorotetrahydro-1H-pyrrolizin-7a(5H)-yl)methoxy)-5-methoxy-4-(1-((methoxy-d3)methyl)-3,8-diazabicyclo[3.2.1]octan-3-yl)pyrido[4,3-d]pyrimidin-7-yl)naphthalen-2-ol] are 50 to 500 nM and 50 to 500 nM.
For `C#Cc1c(F)ccc2cc(O)cc(-c3ncc4c(N5CC6CCC(COC)(C5)N6)nc(OC[C@@]56CCCN5C[C@H](F)C6)nc4c3F)c12` (stereo partly drawn) [Example 1, 5-ethynyl-6-fluoro-4-(8-fluoro-2-(((2R,7aS)-2-fluorotetrahydro-1H-pyrrolizin-7a-yl)methoxy)-4-(1-(methoxymethyl)-3,8-diazabicyclo[3.2.1]octan-3-yl)pyrido[4,3-d]pyrimidin-7-yl)naphthalen-2-ol], the IC50 in the assay on AGS cell (AGS, read-out: AGS cell IC50 (nM)) was determined as 20 nM; on KRAS^G12D/cRAF (numeric values), 100 nM.
Turning to `[2H]C([2H])([2H])C12CCC(CN(c3nc(OC[C@@]45CCCN4C[C@H](F)C5)nc4c(F)c(-c5cc(O)cc6ccc(F)c(C#C)c56)nc(C)c34)C1)N2` (stereo partly drawn) [Example 40, 5-ethynyl-6-fluoro-4-(8-fluoro-2-(((2R,7aS)-2-fluorotetrahydro-1H-pyrrolizin-7a(5H)-yl)methoxy)-5-methyl-4-(1-(methyl-d3)-3,8-diazabicyclo[3.2.1]octan-3-yl)pyrido[4,3-d]pyrimidin-7-yl)naphthalen-2-ol], the IC50 with AGS cell (setting [1]) and at KRAS^G12D/cRAF (class symbols) was less than 50 nM throughout.
In the case of `C#Cc1c(F)ccc2cc(O)cc(-c3ncc4c(N5CC6(C)CCC(C)(C5)N6)nc(OC[C@@]56CCCN5C[C@H](F)C6)nc4c3F)c12` [Example 20, 4-(4-(1,5-dimethyl-3,8-diazabicyclo[3.2.1]octan-3-yl)-8-fluoro-2-(((2R,7aS)-2-fluorotetrahydro-1H-pyrrolizin-7a(5H)-yl)methoxy)pyrido[4,3-d]pyrimidin-7-yl)-5-ethynyl-6-fluoronaphthalen-2-ol], the results for the IC50 in the assay on AGS cell (setting [1]) and at KRAS^G12D/cRAF (class symbols) were less than 50 nM and 50 to 500 nM, respectively.
The matching figures for `C#Cc1c(F)ccc2cc(O)cc(-c3ncc4c(N5CC6CCC(CC(F)F)(C5)N6)nc(OC[C@@]56CCCN5C[C@H](F)C6)nc4c3F)c12` (stereo partly drawn) [Example 21, 4-(4-(1-(2,2-difluoroethyl)-3,8-diazabicyclo[3.2.1]octan-3-yl)-8-fluoro-2-(((2R,7aS)-2-fluorotetrahydro-1H-pyrrolizin-7a(5H)-yl)methoxy)pyrido[4,3-d]pyrimidin-7-yl)-5-ethynyl-6-fluoronaphthalen-2-ol]: less than 50 nM and 50 to 500 nM.
With `C#Cc1c(F)ccc2cc(O)cc(-c3ncc4c(N5C[C@@H]6CC[C@](/C=C\F)(C5)N6)nc(OC[C@@]56CCCN5C[C@H](F)C6)nc4c3F)c12` [Example 60, 5-ethynyl-6-fluoro-4-(8-fluoro-2-(((2R,7aS)-2-fluorotetrahydro-1H-pyrrolizin-7a(5H)-yl)methoxy)-4-((1S,5S)-1-((Z)-2-fluorovinyl)-3,8-diazabicyclo[3.2.1]octan-3-yl)pyrido[4,3-d]pyrimidin-7-yl)naphthalen-2-ol], the figures for the half-maximal inhibitory concentration (IC50) in the assay with AGS cell (setting [2]) and at KRAS^G12D/cRAF (numeric values) were 79 nM and 25 nM, respectively.
Take `C#Cc1c(F)ccc2cc(O)cc(-c3ncc4c(N5CC6CCC(/C=C/F)(C5)N6)nc(OC[C@@]56CCCN5C[C@H](F)C6)nc4c3F)c12` (stereo partly drawn) [Example 28, 5-ethynyl-6-fluoro-4-(8-fluoro-2-(((2R,7aS)-2-fluorotetrahydro-1H-pyrrolizin-7a(5H)-yl)methoxy)-4-(1-((E)-2-fluorovinyl)-3,8-diazabicyclo[3.2.1]octan-3-yl)pyrido[4,3-d]pyrimidin-7-yl) naphthalen-2-ol]: the IC50 in the assay on AGS cell (setting [1]) is less than 50 nM; at KRAS^G12D/cRAF (class symbols), 50 to 500 nM.

Source of the values: patent publication US20260176262A1, “KRAS INHIBITORS, PREPARATION METHOD THEREFOR, AND PHARMACEUTICAL USE THEREOF” (ABBISKO THERAPEUTICS CO., LTD., priority 2021, published 2026).
